Measured values taken from PubChem BioAssay AID1845215 (Molecular Pharmacology Branch, DTP, NCI, 2023).

Test system: SW 1271 complex tumor spheroid viability
Experiment: Anticancer human tumor SW 1271 cell line growth inhibition;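 also: spheroids exposed to agents for seven days before readout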;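 as to viability, T/C: percent of DMSO vehicle control luminescence so 100% = vehicle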
Conditions: for IC50: curve of first compound; for viability, T/C: stronger effect = lower value
Outline: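 Complex tumor spheroids combined malignant cells with endothelial cells and mesenchymal stem cells. DNA-damaging drugs and DNA repair inhibitors were tested alone and in combination, at half-log dilutions down from clinical Cmax (top 10 microM if Cmax unknown), 0.25% DMSO final.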

[1] = second compound 30 pM, first compound 0.00949 µM
[2] = second compound 30 pM, first compound 0.03 µM
[3] = second compound 30 pM, first compound 0.0949 µM
[4] = second compound 30 pM, first compound 0.3 µM
[5] = second compound 30 pM, first compound 0.949 µM
[6] = second compound 30 pM, first compound 3 µM
[7] = second compound 94.9 pM, first compound 0.00949 µM
[8] = second compound 94.9 pM, first compound 0.03 µM
[9] = second compound 94.9 pM, first compound 0.0949 µM
[10] = second compound 94.9 pM, first compound 0.3 µM
[11] = second compound 94.9 pM, first compound 0.949 µM
[12] = second compound 94.9 pM, first compound 3 µM
[13] = second compound 0.0003 µM, first compound 0.00949 µM
[14] = second compound 0.0003 µM, first compound 0.03 µM
[15] = second compound 0.0003 µM, first compound 0.0949 µM
[16] = second compound 0.0003 µM, first compound 0.3 µM
[17] = second compound 0.0003 µM, first compound 0.949 µM
[18] = second compound 0.0003 µM, first compound 3 µM
[19] = second compound 0.000949 µM, first compound 0.00949 µM
[20] = second compound 0.000949 µM, first compound 0.03 µM
[21] = second compound 0.000949 µM, first compound 0.0949 µM
[22] = second compound 0.000949 µM, first compound 0.3 µM
[23] = second compound 0.000949 µM, first compound 0.949 µM
[24] = second compound 0.000949 µM, first compound 3 µM
[25] = second compound 0.003 µM, first compound 0.00949 µM
[26] = second compound 0.003 µM, first compound 0.03 µM
[27] = second compound 0.003 µM, first compound 0.0949 µM
[28] = second compound 0.003 µM, first compound 0.3 µM
[29] = second compound 0.003 µM, first compound 0.949 µM
[30] = second compound 0.003 µM, first compound 3 µM

Compound | IC50 (second compound 30 pM) [µM] | IC50 (second compound 94.9 pM) [µM] | IC50 (second compound 0.0003 µM) [µM] | IC50 (second compound 0.000949 µM) [µM] | IC50 (second compound 0.003 µM) [µM] | viability, T/C [3] [%] | viability, T/C [4] [%] | viability, T/C [5] [%] | viability, T/C [6] [%] | viability, T/C [9] [%] | viability, T/C [10] [%] | viability, T/C [11] [%] | viability, T/C [12] [%] | viability, T/C [15] [%] | viability, T/C [16] [%] | viability, T/C [17] [%] | viability, T/C [18] [%] | viability, T/C [21] [%] | viability, T/C [22] [%] | viability, T/C [23] [%] | other results
CNCc1ccc(-c2cc(-c3nc(-c4ccc(S(=O)(=O)C(C)C)cc4)cnc3N)on2)cc1 + COc1cc2c(cc1O)CCNC21CSC2c3c(OC(C)=O)c(C)c4c(c3C(COC1=O)N1C(O)C3Cc5cc(C)c(OC)c(O)c5C(C21)N3C)OCO4 | 0.117 | 0.0266 | < 0.00949 | < 0.00949 | < 0.00949 | 55.5 | 18.8 | 11.3 | 0.15 | 37 | 27.9 | 14.7 | 0.12 | 38.5 | 35 | 19.5 | 0.15 | 3.92 | 2.05 | 1.95 | viability, T/C [1]: 89.6%; viability, T/C [2]: 89.7%; viability, T/C [7]: 64%; viability, T/C [8]: 42.6%; viability, T/C [13]: 28.8%; viability, T/C [14]: 35.5%; viability, T/C [19]: 5.31%; viability, T/C [20]: 7.14%; viability, T/C [24]: 0.11%; viability, T/C [25]: 0.11%; viability, T/C [26]: 0.11%; viability, T/C [27]: 0.09%; viability, T/C [28]: 0.09%; viability, T/C [29]: 0.1%; viability, T/C [30]: 0.16%
Cc1sc2c(c1C)C(c1ccc(Cl)cc1)=NC(CC(=O)Nc1ccc(O)cc1)c1nnc(C)n1-2 (stereo not given) + COc1cc2c(cc1O)CCNC21CSC2c3c(OC(C)=O)c(C)c4c(c3C(COC1=O)N1C(O)C3Cc5cc(C)c(OC)c(O)c5C(C21)N3C)OCO4 | 0.145 | 0.0416 | < 0.00949 | < 0.00949 | < 0.00949 | 74.3 | 8.06 | 1.02 | 0.91 | 28.9 | 5.41 | 1.12 | 0.93 | 13.5 | 2.97 | 1.45 | 0.77 | 2.99 | 1.78 | 0.1 | viability, T/C [1]: 101%; viability, T/C [2]: 108%; viability, T/C [7]: 76.2%; viability, T/C [8]: 57.9%; viability, T/C [13]: 30.6%; viability, T/C [14]: 23.9%; viability, T/C [19]: 6.61%; viability, T/C [20]: 6.28%; viability, T/C [24]: 0.09%; viability, T/C [25]: 0.11%; viability, T/C [26]: 0.11%; viability, T/C [27]: 0.11%; viability, T/C [28]: 0.11%; viability, T/C [29]: 0.09%; viability, T/C [30]: 0.17%
Cn1ncnc1[C@H]1c2n[nH]c(=O)c3cc(F)cc(c23)N[C@@H]1c1ccc(F)cc1 + COc1cc2c(cc1O)CCNC21CSC2c3c(OC(C)=O)c(C)c4c(c3C(COC1=O)N1C(O)C3Cc5cc(C)c(OC)c(O)c5C(C21)N3C)OCO4 | 0.0125 | < 0.00949 | < 0.00949 | < 0.00949 | < 0.00949 | 30.2 | 36.5 | 32.9 | 26.3 | 32.7 | 32.9 | 34.7 | 20.4 | 27.7 | 32.8 | 27.4 | 10.2 | 2.24 | 5.88 | 2.29 | viability, T/C [1]: 53.8%; viability, T/C [2]: 38.3%; viability, T/C [7]: 37.2%; viability, T/C [8]: 33.5%; viability, T/C [13]: 34.7%; viability, T/C [14]: 35%; viability, T/C [19]: 8.93%; viability, T/C [20]: 4.22%; viability, T/C [24]: 0.31%; viability, T/C [25]: 0.1%; viability, T/C [26]: 0.09%; viability, T/C [27]: 0.09%; viability, T/C [28]: 0.1%; viability, T/C [29]: 0.09%; viability, T/C [30]: 0.15%
O=C(c1cc(Cc2n[nH]c(=O)c3ccccc23)ccc1F)N1CCN(C(=O)C2CC2)CC1 + COc1cc2c(cc1O)CCNC21CSC2c3c(OC(C)=O)c(C)c4c(c3C(COC1=O)N1C(O)C3Cc5cc(C)c(OC)c(O)c5C(C21)N3C)OCO4 | 1.36 | 0.206 | < 0.0949 | < 0.0949 | < 0.0949 | 87.3 | 70.1 | 57.6 | 36.5 | 54.3 | 53.6 | 31.2 | 29.9 | 28 | 35.6 | 32.8 | 31.1 | 4.23 | 5.88 | 3.15 | viability, T/C (second compound 30 pM, first compound 9.49 µM): 25.3%; viability, T/C (second compound 30 pM, first compound 30 µM): 11.8%; viability, T/C (second compound 94.9 pM, first compound 9.49 µM): 28.6%; viability, T/C (second compound 94.9 pM, first compound 30 µM): 11.7%; viability, T/C (second compound 0.0003 µM, first compound 9.49 µM): 24.2%; viability, T/C (second compound 0.0003 µM, first compound 30 µM): 3.66%; viability, T/C [24]: 1.8%; viability, T/C (second compound 0.000949 µM, first compound 9.49 µM): 1.43%; viability, T/C (second compound 0.000949 µM, first compound 30 µM): 0.13%; viability, T/C [27]: 0.19%; viability, T/C [28]: 0.19%; viability, T/C [29]: 0.12%; viability, T/C [30]: 0.13%; viability, T/C (second compound 0.003 µM, first compound 9.49 µM): 0.15%; viability, T/C (second compound 0.003 µM, first compound 30 µM): 0.21%
